Assay results taken from US9018214B2, “Bicyclic heterocycle compounds and their uses in therapy” (Astex Therapeutics Limited, priority 2011, dated 2015).
Counter-ions that a name gives are not always drawn. Like-named read-outs stand apart in the source and are kept apart here.

What was measured:
[1] = target: BIR3 domain of human XIAP (residues 252-350) (Homo sapiens (Human), UniProt P98170); assay: XIAP in vitro competitive displacement binding assay (fluorescence polarization); details: for IC50: read-out: IC50 or PI Xiap: IC50; for inhibition at 0.04 µM: 1 h, read-out: IC50 or PI Xiap: PI
[2] = target: BIR3 domain of human cIAP-1 (residues 267-363) (Homo sapiens (Human), UniProt Q13490); assay: cIAP-1 in vitro competitive displacement binding assay (fluorescence polarization; Probe A AVPIK(5&6FAM)-amide or Probe B AbuRPFK(5&6FAM)-amide); details: for inhibition at […]: 3 h, read-out: IC50 or PI cIAP1: PI
[3] = test system: EVSA-T (human breast carcinoma); assay: Anti-proliferative activity, Alamar Blue assay, EVSA-T; format: cell-based; details: Homo sapiens, EVSA-T, read-out: EVSA-T prolif (EC50)
[4] = read-out: IC50 or PI cIAP1: IC50

Row | Compound | IC50 [1] | IC50 [2] | IC50 [2, 4] | EC50 ([3]; 72 h) | inhibition at 0.04 µM [1] | inhibition at […] [2] | EC50 ([3]; 72 hours, Alamar Blue) | inhibition at […] ([2]; Probe B, @ 0.012 μM) | inhibition at 0.04 µM ([1]; @ 0.04 μM)
1 | C[C@@H]1CN(CC(=O)N2CC(C)(C)c3ncc(C(F)(F)CC4CC4)cc32)[C@@H](CN2CCOCC2)CN1 [Example 231, 1-[6-(2-Cyclopropyl-1,1-difluoroethyl)-3,3-dimethyl-1H,2H,3H-pyrrolo[3,2-b]pyridin-1-yl]-2-[(2R,5R)-5-methyl-2-(morpholin-4-ylmethyl)piperazin-1-yl]ethan-1-one dihydrochloride] | 65 nM | < 1000 nM | 9.5 nM | 67 nM | – | – | – | – | –
2 | C[C@@H]1CN(CC(=O)N2CC(C)(C)c3ncc(C(F)(F)c4ccccc4)cc32)[C@@H](CN2CCOCC2)CN1 [Example 232, 1-{6-[Difluoro(phenyl)methyl]-3,3-dimethyl-1H,2H,3H-pyrrolo[3,2-b]pyridin-1-yl}-2-[(2R,5R)-5-methyl-2-(morpholin-4-ylmethyl)piperazin-1-yl]ethan-1-one dihydrochloride] | – | – | – | – | 48% | 77% | 36 nM | – | –
3 | CCCC(F)(F)c1cc2c(cn1)C(C)(C)CN2C(=O)CN1C[C@@H](C)NC[C@@H]1Cc1nccs1 [Example 233, 1-[6-(1,1-Difluorobutyl)-3,3-dimethyl-1H,2H,3H-pyrrolo[3,2-c]pyridin-1-yl]-2-[(2S,5R)-5-methyl-2-(1,3-thiazol-2-ylmethyl)piperazin-1-yl]ethan-1-one hydrochloride] | 76 nM | – | – | – | – | – | 91 nM | 62% | –
4 | C[C@@H]1CN(CC(=O)N2CC(C)(C)c3ncc(Cc4ccc(F)cc4F)cc32)[C@@H](CN2CCOCC2)CN1 [Example 236, 1-{6-[(2,4-Difluorophenyl)methyl]-3,3-dimethyl-1H,2H,3H-pyrrolo[3,2-b]pyridin-1-yl}-2-[(2R,5R)-5-methyl-2-(morpholin-4-ylmethyl)piperazin-1-yl]ethan-1-one dihydrochloride] | 58 nM | – | – | 7.8 nM | – | 96% | – | – | –
5 | C[C@@H]1CN(CC(=O)N2CC(C)(C)c3cnc(Cc4ccc(F)cc4)cc32)[C@@H](CN2CCOCC2)CN1 [Example 237, 1-{6-[(4-Fluorophenyl)methyl]-3,3-dimethyl-1H,2H,3H-pyrrolo[3,2-c]pyridin-1-yl}-2-[(2R,5R)-5-methyl-2-(morpholin-4-ylmethyl)piperazin-1-yl]ethan-1-one hydrochloride] | 55 nM | – | – | – | – | – | 4.6 nM | 97% | –
6 | CCCC(F)(F)c1cc2c(cn1)C(C)(C)CN2C(=O)CN1C[C@@H](C)NC[C@@H]1CN1CCOCC1 [Example 239, 1-[6-(1,1-Difluorobutyl)-3,3-dimethyl-1H,2H,3H-pyrrolo[3,2-c]pyridin-1-yl]-2-[(2R,5R)-5-methyl-2-(morpholin-4-ylmethyl)piperazin-1-yl]ethan-1-one hydrochloride] | – | – | – | – | – | – | 32 nM | 72% | 52%
7 | C[C@@H]1CN(CC(=O)N2CC(C)(C)c3cnc(Cc4ccccc4F)cc32)[C@@H](CN2CCCC2=O)CN1 [Example 242, 1-{[(2R,5R)-1-(2-{6-[(2-Fluorophenyl)methyl]-3,3-dimethyl-1H,2H,3H-pyrrolo[3,2-c]pyridin-1-yl}-2-oxoethyl)-5-methylpiperazin-2-yl]methyl}pyrrolidin-2-one hydrochloride] | – | – | – | – | – | – | 13 nM | 92% | 65%
8 | C[C@@H]1CN(CC(=O)N2CC(C)(C)c3ncc(Cc4ccc(F)cc4)cc32)[C@@H](CN2C[C@@H](C)O[C@@H](C)C2)CN1 [Example 243, 2-[(2R,5R)-2-{[(2R,6S)-2,6-Dimethylmorpholin-4-yl]methyl}-5-methylpiperazin-1-yl]-1-{6-[(4-fluorophenyl)methyl]-3,3-dimethyl-1H,2H,3H-pyrrolo[3,2-b]pyridin-1-yl}ethan-1-one dihydrochloride] | 47 nM | – | – | 25 nM | – | 100% | – | – | –
9 | C[C@@H]1CN(CC(=O)N2CC(C)(C)c3cnc(Cc4ccccc4F)cc32)[C@@H](CN2CCOC[C@H]2C)CN1 [Example 244, 1-{6-[(2-Fluorophenyl)methyl]-3,3-dimethyl-1H,2H,3H-pyrrolo[3,2-c]pyridin-1-yl}-2-[(2R,5R)-5-methyl-2-{[(3R)-3-methylmorpholin-4-yl]methyl}piperazin-1-yl]ethan-1-one hydrochloride] | – | – | – | – | – | – | 2.2 nM | 98% | 67%
10 | C[C@@H]1CN(CC(=O)N2CC(C)(C)c3cnc(Cc4ccccc4F)cc32)[C@@H](CN2CCOCC2)CN1 [Example 245, 1-{6-[(2-Fluorophenyl)methyl]-3,3-dimethyl-1H,2H,3H-pyrrolo[3,2-c]pyridin-1-yl}-2-[(2R,5R)-5-methyl-2-(morpholin-4-ylmethyl)piperazin-1-yl]ethan-1-one hydrochloride] | 47 nM | – | – | – | – | – | 4.2 nM | 86% | –
11 | CCCC(F)(F)c1cnc2c(c1)N(C(=O)CN1C[C@@H](C)NC[C@@H]1CN1C[C@@H](C)O[C@@H](C)C1)CC2(C)C [Example 246, 1-[6-(1,1-Difluorobutyl)-3,3-dimethyl-1H,2H,3H-pyrrolo[3,2-b]pyridin-1-yl]-2-[(2R,5R)-2-{[(2R,6S)-2,6-dimethylmorpholin-4-yl]methyl}-5-methylpiperazin-1-yl]ethan-1-one dihydrochloride] | 43 nM | – | – | 31 nM | – | 76% | – | – | –
12 | C[C@@H]1CN(CC(=O)N2CC(C)(C)c3ncc(Cc4ccccc4F)cc32)[C@@H](CN2CCOCC2)CN1 [Example 247, 1-{6-[(2-Fluorophenyl)methyl]-3,3-dimethyl-1H,2H,3H-pyrrolo[3,2-b]pyridin-1-yl}-2-[(2R,5R)-5-methyl-2-(morpholin-4-ylmethyl)piperazin-1-yl]ethan-1-one dihydrochloride] | 66 nM | – | – | 33 nM | – | 80% | – | – | –
13 | CCCC(F)(F)c1cnc2c(c1)N(C(=O)CN1C[C@@H](C)NC[C@@H]1CN1CCOC[C@H]1CC)CC2(C)C [Example 248, 1-[6-(1,1-Difluorobutyl)-3,3-dimethyl-1H,2H,3H-pyrrolo[3,2-b]pyridin-1-yl]-2-[(2R,5R)-2-{[(3R)-3-ethylmorpholin-4-yl]methyl]-5-methylpiperazin-1-yl]ethan-1-one dihydrochloride] | – | – | – | – | 69% | 91% | 10 nM | – | –
14 | C[C@@H]1CN(CC(=O)N2CC(C)(C)c3ncc(Cc4ccccc4F)cc32)[C@@H](CN2CCCC2=O)CN1 [Example 249, 1-{[(2R,5R)-1-(2-{6-[(2-Fluorophenyl)methyl]-3,3-dimethyl-1H,2H,3H-pyrrolo[3,2-b]pyridin-1-yl}-2-oxoethyl)-5-methylpiperazin-2-yl]methyl}pyrrolidin-2-one hydrochloride] | – | – | – | – | – | – | 10 nM | 90% | 56%
15 | C[C@@H]1CN(CC(=O)N2CC(C)(C)c3cnc(Cc4ccc(F)cc4)cc32)[C@@H](CN2CCOC[C@H]2C)CN1 [Example 251, 1-{6-[(4-Fluorophenyl)methyl]-3,3-dimethyl-1H,2H,3H-pyrrolo[3,2-c]pyridin-1-yl}-2-[(2R,5R)-5-methyl-2-{[(3R)-3-methylmorpholin-4-yl]methyl}piperazin-1-yl]ethan-1-one dihydrochloride] | – | – | – | – | 68% | 99% | 0.65 nM | – | –
16 | CCCC(F)(F)c1cc2c(cn1)C(C)(C)CN2C(=O)CN1C[C@@H](C)NC[C@@H]1CN1CCOC[C@H]1C [Example 252, 1-[6-(1,1-Difluorobutyl)-3,3-dimethyl-1H,2H,3H-pyrrolo[3,2-c]pyridin-1-yl]-2-[(2R,5R)-5-methyl-2-{[(3R)-3-methylmorpholin-4-yl]methyl}piperazin-1-yl]ethan-1-one diydrochloride] | – | – | – | – | – | – | 4 nM | 91% | 72%
17 | CC[C@@H]1COCCN1C[C@H]1CN[C@H](C)CN1CC(=O)N1CC(C)(C)c2ncc(C(C)(F)F)cc21 [Example 253, 1-[6-(1,1-Difluoroethyl)-3,3-dimethyl-1H,2H,3H-pyrrolo[3,2-b]pyridin-1-yl]-2-[(2R,5R)-2-{[(3R)-3-ethylmorpholin-4-yl]methyl}-5-methylpiperazin-1-yl]ethan-1-one dihydrochloride] | 50 nM | < 1000 nM | 17 nM | 51 nM | – | – | – | – | –
18 | CC[C@@H]1COCCN1C[C@H]1CN[C@H](C)CN1CC(=O)N1CC(C)(C)c2ncc(Cc3ccc(F)cc3)cc21 [Example 254, 2-[(2R,5R)-2-{[(3R)-3-Ethylmorpholin-4-yl]methyl}-5-methylpiperazin-1-yl]-1-{6-[(4-fluorophenyl)methyl]-3,3-dimethyl-1H,2H,3H-pyrrolo[3,2-b]pyridin-1-yl}ethan-1-one dihydrochloride] | – | – | – | – | 51% | 98% | 1.9 nM | – | –
19 | CC[C@@H]1COCCN1C[C@H]1CN[C@H](C)CN1CC(=O)N1CC(C)(C)c2ncc(C(F)(F)CC)cc21 [Example 255, 1-[6-(1,1-Difluoropropyl)-3,3-dimethyl-1H,2H,3H-pyrrolo[3,2-b]pyridin-1-yl]-2-[(2R,5R)-2-{[(3R)-3-ethylmorpholin-4-yl]methyl}-5-methylpiperazin-1-yl]ethan-1-one dihydrochloride] | – | < 1000 nM | 14 nM | 32 nM | 49% | – | – | – | –
20 | CCC(F)(F)c1cnc2c(c1)N(C(=O)CN1C[C@@H](C)NC[C@@H]1CN1CCOC[C@H]1COC)CC2(C)C [Example 256, 1-[6-(1,1-Difluoropropyl)-3,3-dimethyl-1H,2H,3H-pyrrolo[3,2-b]pyridin-1-yl]-2-[(2R,5R)-2-{[(3R)-3-(methoxymethyl)morpholin-4-yl]methyl}-5-methylpiperazin-1-yl]ethan-1-one dihydrochloride] | 53 nM | < 1000 nM | 24 nM | 78 nM | – | – | – | – | –
